Patent publication US20100056468A1, “Pyrimidine Derivatives As Anticancer Agents” (University Health Network, priority 2007, published 2010)

Test system: CCD967
Experiment: In vitro cell proliferation assay (WST.1, Table 5)
Type: cell-based
Details: Homo sapiens, CCD-967, 72 h; CCD967 normal skin line, day 3
Experimental: (§1) These cell lines were grown in Iscove's MDM supplemented with 5% fetal calf serum (FCS), 50 μM 2-mercaptoethanol, 100 μg/ml penicillin, and 100 μg/ml streptomycin. Cell lines growing in suspension were maintained at 0.5-1.5×10^6 cell/ml, while adherent cell lines were maintained at subconfluent densities.
(§2) Cell lines were seeded in triplicate at 10^4 cells/100 μl in 96-well plates. Peripheral blood mononuclear cells were seeded in triplicate at 10^5 cells/100 μl in 96-well plate. Different test compounds were added immediately at final concentrations ranging between 0 to 100 μM. All compounds were dissolved in sterile deionized water, so water was added to the control wells. On day 3, WST.1 assay (Roche) was used to measure the effect of different test compounds on cell growth. WST.1 assay is a calorimetric assay for the nonradioactive quantification of cell proliferation, cell viability, and cytotoxicity. The assay was performed according to manufacturer's instructions (Roche). It relies on the cleavage by cellular enzymes of WST.1 (water soluble tetrazolium salt: 4-[3-(4-iodophenyl)-2-(4-nitrophenyl)-2H-5-tetrazolio]-1,3-benzene disulfonate) to formazan. The amount of formazan dye formed correlates to the number of metabolically active cells in the culture and is readily read in an ELISA microplate reader using an absorbance wavelength of 440 nm. These OD values are plotted against concentrations of different compounds and IC50 is determined for each compound.

Compound | IC50 [µM]
N#Cc1cc(=O)[nH]c(=O)n1[C@@H]1O[C@H](CO)C(O)C1O (stereo partly drawn) | > 50
O=c1cc(I)n([C@@H]2O[C@H](CO)C(O)C2O)c(=O)[nH]1 (stereo partly drawn) | > 50
CCOC(=O)c1cc(=O)[nH]c(=O)n1[C@@H]1O[C@H](CO)C(O)C1O (stereo partly drawn) | > 50
[N-]=[N+]=Nc1cc(=O)[nH]c(=O)n1[C@@H]1O[C@H](CO)C(O)C1O (stereo partly drawn) | > 50

Test system: COLO205
Experiment: In vitro cell proliferation assay (WST.1, Table 5)
Type: cell-based
Details: Homo sapiens, COLO 205, 72 h; COLO205, day 3
Experimental: as §1, §2

Compound | IC50 [µM]
N#Cc1cc(=O)[nH]c(=O)n1[C@@H]1O[C@H](CO)C(O)C1O (stereo partly drawn) | > 50
O=c1cc(I)n([C@@H]2O[C@H](CO)C(O)C2O)c(=O)[nH]1 (stereo partly drawn) | > 50
CCOC(=O)c1cc(=O)[nH]c(=O)n1[C@@H]1O[C@H](CO)C(O)C1O (stereo partly drawn) | > 50
[N-]=[N+]=Nc1cc(=O)[nH]c(=O)n1[C@@H]1O[C@H](CO)C(O)C1O (stereo partly drawn) | > 50

Test system: HS58T
Experiment: In vitro cell proliferation assay (WST.1, Table 5)
Type: cell-based
Details: Homo sapiens, 72 h, day 3
Experimental: as §1, §2

Compound | IC50 [µM]
N#Cc1cc(=O)[nH]c(=O)n1[C@@H]1O[C@H](CO)C(O)C1O (stereo partly drawn) | > 50
O=c1cc(I)n([C@@H]2O[C@H](CO)C(O)C2O)c(=O)[nH]1 (stereo partly drawn) | > 50
CCOC(=O)c1cc(=O)[nH]c(=O)n1[C@@H]1O[C@H](CO)C(O)C1O (stereo partly drawn) | > 50
[N-]=[N+]=Nc1cc(=O)[nH]c(=O)n1[C@@H]1O[C@H](CO)C(O)C1O (stereo partly drawn) | > 50

Test system: MCF7
Experiment: In vitro cell proliferation assay (WST.1, Table 5)
Type: cell-based
Details: Homo sapiens, 72 h; MCF7, day 3
Experimental: as §1, §2

Compound | IC50 [µM]
N#Cc1cc(=O)[nH]c(=O)n1[C@@H]1O[C@H](CO)C(O)C1O (stereo partly drawn) | > 50
O=c1cc(I)n([C@@H]2O[C@H](CO)C(O)C2O)c(=O)[nH]1 (stereo partly drawn) | > 50
CCOC(=O)c1cc(=O)[nH]c(=O)n1[C@@H]1O[C@H](CO)C(O)C1O (stereo partly drawn) | > 50
[N-]=[N+]=Nc1cc(=O)[nH]c(=O)n1[C@@H]1O[C@H](CO)C(O)C1O (stereo partly drawn) | > 50

Test system: MDA468
Experiment: In vitro cell proliferation assay (WST.1, Table 5)
Type: cell-based
Details: Homo sapiens, 72 h; MDA468, day 3
Experimental: as §1, §2

Compound | IC50 [µM]
N#Cc1cc(=O)[nH]c(=O)n1[C@@H]1O[C@H](CO)C(O)C1O (stereo partly drawn) | > 50
O=c1cc(I)n([C@@H]2O[C@H](CO)C(O)C2O)c(=O)[nH]1 (stereo partly drawn) | > 50
CCOC(=O)c1cc(=O)[nH]c(=O)n1[C@@H]1O[C@H](CO)C(O)C1O (stereo partly drawn) | > 50
[N-]=[N+]=Nc1cc(=O)[nH]c(=O)n1[C@@H]1O[C@H](CO)C(O)C1O (stereo partly drawn) | > 50

Test system: OCI-AML-1
Experiment: In vitro cell proliferation assay (WST.1, Table 5)
Type: cell-based
Details: Homo sapiens, 72 h; OCI-AML-1, day 3
Experimental: as §1, §2

Compound | IC50 [µM]
N#Cc1cc(=O)[nH]c(=O)n1[C@@H]1O[C@H](CO)C(O)C1O (stereo partly drawn) | > 50
O=c1cc(I)n([C@@H]2O[C@H](CO)C(O)C2O)c(=O)[nH]1 (stereo partly drawn) | 15.3
CCOC(=O)c1cc(=O)[nH]c(=O)n1[C@@H]1O[C@H](CO)C(O)C1O (stereo partly drawn) | > 50
[N-]=[N+]=Nc1cc(=O)[nH]c(=O)n1[C@@H]1O[C@H](CO)C(O)C1O (stereo partly drawn) | > 50

Test system: OCI-AML-2
Experiment: In vitro cell proliferation assay (WST.1, Table 5)
Type: cell-based
Details: Homo sapiens, OCI-AML2, 72 h; OCI-AML-2, day 3
Experimental: as §1, §2

Compound | IC50 [µM]
N#Cc1cc(=O)[nH]c(=O)n1[C@@H]1O[C@H](CO)C(O)C1O (stereo partly drawn) | > 50
O=c1cc(I)n([C@@H]2O[C@H](CO)C(O)C2O)c(=O)[nH]1 (stereo partly drawn) | > 50
CCOC(=O)c1cc(=O)[nH]c(=O)n1[C@@H]1O[C@H](CO)C(O)C1O (stereo partly drawn) | > 50
[N-]=[N+]=Nc1cc(=O)[nH]c(=O)n1[C@@H]1O[C@H](CO)C(O)C1O (stereo partly drawn) | > 50

Test system: OCI-Ly-7
Experiment: In vitro cell proliferation assay (WST.1, Table 5)
Type: cell-based
Details: Homo sapiens, OCI-Ly7, 72 h; OCI-Ly-7, day 3
Experimental: as §1, §2

Compound | IC50 [µM]
N#Cc1cc(=O)[nH]c(=O)n1[C@@H]1O[C@H](CO)C(O)C1O (stereo partly drawn) | > 50
O=c1cc(I)n([C@@H]2O[C@H](CO)C(O)C2O)c(=O)[nH]1 (stereo partly drawn) | > 50
CCOC(=O)c1cc(=O)[nH]c(=O)n1[C@@H]1O[C@H](CO)C(O)C1O (stereo partly drawn) | > 50
[N-]=[N+]=Nc1cc(=O)[nH]c(=O)n1[C@@H]1O[C@H](CO)C(O)C1O (stereo partly drawn) | > 50

Test system: OCI-My-2
Experiment: In vitro cell proliferation assay (WST.1, Table 5)
Type: cell-based
Details: Homo sapiens, 72 h; OCI-My-2, day 3
Experimental: as §1, §2

Compound | IC50 [µM]
N#Cc1cc(=O)[nH]c(=O)n1[C@@H]1O[C@H](CO)C(O)C1O (stereo partly drawn) | > 50
O=c1cc(I)n([C@@H]2O[C@H](CO)C(O)C2O)c(=O)[nH]1 (stereo partly drawn) | 27.8
CCOC(=O)c1cc(=O)[nH]c(=O)n1[C@@H]1O[C@H](CO)C(O)C1O (stereo partly drawn) | 42.3
[N-]=[N+]=Nc1cc(=O)[nH]c(=O)n1[C@@H]1O[C@H](CO)C(O)C1O (stereo partly drawn) | > 50

Test system: OCVR4
Experiment: In vitro cell proliferation assay (WST.1, Table 5)
Type: cell-based
Details: Homo sapiens, 72 h; OCVR4, day 3
Experimental: as §1, §2

Compound | IC50 [µM]
N#Cc1cc(=O)[nH]c(=O)n1[C@@H]1O[C@H](CO)C(O)C1O (stereo partly drawn) | > 50
O=c1cc(I)n([C@@H]2O[C@H](CO)C(O)C2O)c(=O)[nH]1 (stereo partly drawn) | > 50
CCOC(=O)c1cc(=O)[nH]c(=O)n1[C@@H]1O[C@H](CO)C(O)C1O (stereo partly drawn) | > 50
[N-]=[N+]=Nc1cc(=O)[nH]c(=O)n1[C@@H]1O[C@H](CO)C(O)C1O (stereo partly drawn) | > 50

Test system: PC3
Experiment: In vitro cell proliferation assay (WST.1, Table 5)
Type: cell-based
Details: Homo sapiens, PC-3, 72 h; PC3, day 3
Experimental: as §1, §2

Compound | IC50 [µM]
N#Cc1cc(=O)[nH]c(=O)n1[C@@H]1O[C@H](CO)C(O)C1O (stereo partly drawn) | > 50
O=c1cc(I)n([C@@H]2O[C@H](CO)C(O)C2O)c(=O)[nH]1 (stereo partly drawn) | > 50
CCOC(=O)c1cc(=O)[nH]c(=O)n1[C@@H]1O[C@H](CO)C(O)C1O (stereo partly drawn) | > 50
[N-]=[N+]=Nc1cc(=O)[nH]c(=O)n1[C@@H]1O[C@H](CO)C(O)C1O (stereo partly drawn) | > 50

Test system: SKW3
Experiment: In vitro cell proliferation assay (WST.1, Table 5)
Type: cell-based
Details: Homo sapiens, 72 h; SKW3, day 3
Experimental: as §1, §2

Compound | IC50 [µM]
N#Cc1cc(=O)[nH]c(=O)n1[C@@H]1O[C@H](CO)C(O)C1O (stereo partly drawn) | > 50
O=c1cc(I)n([C@@H]2O[C@H](CO)C(O)C2O)c(=O)[nH]1 (stereo partly drawn) | 18.9
CCOC(=O)c1cc(=O)[nH]c(=O)n1[C@@H]1O[C@H](CO)C(O)C1O (stereo partly drawn) | > 50
[N-]=[N+]=Nc1cc(=O)[nH]c(=O)n1[C@@H]1O[C@H](CO)C(O)C1O (stereo partly drawn) | > 50

Test system: SNB19
Experiment: In vitro cell proliferation assay (WST.1, Table 5)
Type: cell-based
Details: Homo sapiens, SNB-19, 72 h; SNB19, day 3
Experimental: as §1, §2

Compound | IC50 [µM]
N#Cc1cc(=O)[nH]c(=O)n1[C@@H]1O[C@H](CO)C(O)C1O (stereo partly drawn) | > 50
O=c1cc(I)n([C@@H]2O[C@H](CO)C(O)C2O)c(=O)[nH]1 (stereo partly drawn) | > 50
CCOC(=O)c1cc(=O)[nH]c(=O)n1[C@@H]1O[C@H](CO)C(O)C1O (stereo partly drawn) | > 50
[N-]=[N+]=Nc1cc(=O)[nH]c(=O)n1[C@@H]1O[C@H](CO)C(O)C1O (stereo partly drawn) | > 50

Test system: T47D
Experiment: In vitro cell proliferation assay (WST.1, Table 5)
Type: cell-based
Details: Homo sapiens, 72 h, day 3
Experimental: as §1, §2

Compound | IC50 [µM]
N#Cc1cc(=O)[nH]c(=O)n1[C@@H]1O[C@H](CO)C(O)C1O (stereo partly drawn) | > 50
O=c1cc(I)n([C@@H]2O[C@H](CO)C(O)C2O)c(=O)[nH]1 (stereo partly drawn) | > 50
CCOC(=O)c1cc(=O)[nH]c(=O)n1[C@@H]1O[C@H](CO)C(O)C1O (stereo partly drawn) | > 50
[N-]=[N+]=Nc1cc(=O)[nH]c(=O)n1[C@@H]1O[C@H](CO)C(O)C1O (stereo partly drawn) | > 50

Test system: LOX
Experiment: In vitro cell proliferation assay (WST.1, Table 5)
Type: cell-based, human
Details: Homo sapiens, 72 h, day 3
Experimental: as §1, §2

Compound | IC50 [µM]
N#Cc1cc(=O)[nH]c(=O)n1[C@@H]1O[C@H](CO)C(O)C1O (stereo partly drawn) | > 50
O=c1cc(I)n([C@@H]2O[C@H](CO)C(O)C2O)c(=O)[nH]1 (stereo partly drawn) | > 50
CCOC(=O)c1cc(=O)[nH]c(=O)n1[C@@H]1O[C@H](CO)C(O)C1O (stereo partly drawn) | > 50
[N-]=[N+]=Nc1cc(=O)[nH]c(=O)n1[C@@H]1O[C@H](CO)C(O)C1O (stereo partly drawn) | > 50
